Data set [1] deals with S. aureus (ATCC No. 6538). Put plainly: MIC, broth microdilution. It counts as cell-based, Staphylococcus aureus. The conditions noted are these: Gemini-surfactant series S; 18 hours, 37° C. As for the experimental part: (§1) Bacterial and fungal samples were inoculated according to ATCC's requirement. Briefly, bacteria and fungi were grown in Mueller Hinton Broth (MHB) at 37° C. and room temperature, respectively overnight to allow the microbes to enter the log growth phase with constant 100 rpm shaking. Minimum inhibitory concentration (MIC) of the polymers was determined using the broth microdilution method. 100 μL of 20% v/v water-containing broth with various polymer or Gemini-surfactant concentrations was first added into each well of a 96-well tissue culture plate. The inoculated overnight microbe solution was first diluted to an optical density (O.D.) reading of 0.07 using a microplate reader (TECAN, Switzerland). This will correspond to 3×10^8 CFU/mL based on the McFarland 1 standard solution (CFU=colony forming units). The microbe solution was further diluted 1000 times to achieve a final 3×10^5 CFU/mL. To each well, an equal volume of diluted microbes solution was added and incubated at 37° C. for 18 hours for bacteria samples and at room temperature for 42 hours for fungi samples. There were 6 replicates for each concentration tested, with negative control being microbes added into broth containing 20% v/v deionized water. MIC was taken as the lowest concentration at which there was no observable microbe growth when measured by the microplate reader.
On the technique in general: Dilution methods test growth across graded concentrations, often in twofold steps.

For data set [2], the system named is E. coli (ATCC No. 25922). As to the kind of experiment: MIC, broth microdilution. The conditions noted are these: Gemini-surfactant series S; 18 hours, 37° C. It is filed as cell-based, Escherichia coli. The protocol:
as §1

The test system of data set [3] is P. aeruginosa (ATCC No. 9027). As to the kind of experiment: MIC, broth microdilution. It is filed as cell-based, Pseudomonas aeruginosa. The conditions noted are these: Gemini-surfactant series S; 18 hours, 37° C. As for the experimental part:
as §1

The subject of data set [4] is C. albicans (ATCC No 10231). Put plainly: MIC, broth microdilution. It is filed as cell-based, Candida albicans. The conditions noted are these: Gemini-surfactant series S; 42 hours, room temperature. The protocol:
as §1

Data set [5] has as its system rat red blood cells (rRBCs). Put plainly: Hemolysis assay. It is filed as cell-based. The conditions noted are these: Gemini-surfactant series S; 1 hour, 37° C. The protocol:
Freshly obtained rat red blood cells (rRBC) from the Animal Handling Unit of Biomedical Research Center (Singapore) was used to test the hemolytic activity of the polymers and Gemini-surfactants. The rRBC was diluted to 4% v/v with phosphate-buffered saline (PBS) and added to an equal volume of 0.2% v/v Triton-X solution. A microplate reader was used to measure the optical density (O.D.) reading to make sure the value is between 0.5 and 0.6. An equal volume of different polymer or Gemini-surfactant concentrations was added to the diluted blood and incubated for 1 hour at 37° C. The samples were centrifuged at 1000 g at 4° C. for 5 minutes and 100 μL of the supernatant was collected and transferred to a 96-well tissue culture plate. There were 4 replicates for each concentration. Haemoglobin release was measured using the microplate reader at 576 nm. rRBCs treated with PBS were used as the […] control, while those treated with 0.2% v/v Triton-X was used as the […] control.
Percentage of hemolysis was calculated as follows: Hemolysis (%)═[(O.D.576 nm of the treated sample−O.D.576 nm of negative control)/(O.D.576 nm of positive control−O.D.576 nm of negative control)]×100%
HC50 was taken as the polymer concentration at which the polymer causes 50% hemolysis.

Data set [6] relates to S. aureus, E. coli, P. aeruginosa, C. albicans. As to the kind of experiment: Killing efficiency test (CFU on agar after MIC testing). It counts as cell-based. The conditions noted are these: at MIC and 2×MIC, all the microbes. The protocol:
After MIC testing, all solutions from the control, ½MIC, MIC and 2MIC wells were collected and subjected to a series of ten-fold dilution. 20 μL of the diluted microbe solution was streaked onto pre-casted agar plates using LB+1.5% agar from the first Base. Agar plates with bacteria samples were incubated at 37° C. for 18 hours while those with fungi samples were incubated for 42 hours at room temperature before the CFUs were counted.

For data set [7] the test system is unchanged. As to the kind of experiment: Killing kinetics, several strains together. It is filed as cell-based. The protocol:
600 μL of 3×10^5 CFU/mL microbial suspension was added to each concentration of the polymer. […] 20 μL of the diluted microbial suspension was then plated onto agar plates and incubated for 24 hours and 42 hours at 37° C. and room temperature for bacteria and fungi respectively, then manually counted for CFU.

Data set [8] relates to S. aureus biofilms. As to the kind of experiment: XTT assay for cell viability of biofilms. It counts as cell-based, Staphylococcus aureus. The conditions noted are these: 18 hours treatment. The protocol: (§2) The bacteria stock was diluted in Mueller Hinton Broth (MHB) to get an optical density (OD) reading of 0.07 at 600 nm. 48 wells of a 96 flat-well plate were plated with 100 μL of bacteria suspension each. The plate was then incubated at 37° C. Every day over the next 7 days, MHB was carefully removed from the plate so as not to disturb the biofilm at the bottom of the well, and replaced with 100 μL of fresh MHB to each well.
(§3) After the biofilm was cultured, at the end of 7 days, MHB was removed from the wells. The biofilms were washed carefully with PBS 3 times to remove planktonic cells. The surfactant was weighed in a micro-centrifuge tube, and the weighed sample was diluted to 10,000 mg L^−1 using distilled water. Serial dilution was conducted to obtain surfactant solutions having concentrations of 100 mg L^−1, 70 mg L^−1, 50 mg L^−1, 35 mg L^−1, 25 mg L^−1, 20 mg L^−1, and 10 mg L^−1. The solvent was 20% distilled water and 80% MHB for each solution. The control was 20% distilled water and 80% MHB without surfactant. The surfactant solutions of different concentrations were added to the wells, 100 μL into each, with 6 replicates for each concentration. The plate was then incubated at 37° C. for 18 hours. […] At the end of the incubation period, the optical density (OD) reading of the plate was taken at 490 nm.

For data set [9], the system named is E. coli biofilms. Put plainly: XTT assay for cell viability of biofilms. The conditions noted are these: 18 hours treatment. It counts as cell-based, Escherichia coli. As for the experimental part: as §2, §3
A general note: Tetrazolium assays rely on reduction of a dye to a coloured formazan, in cell work by metabolically active cells.

Data set [10] deals with S. aureus biofilms. Put plainly: Biofilm biomass assay (safranin O). Conditions: 18 hours treatment. It counts as cell-based, Staphylococcus aureus. As for the experimental part: as §2
as §3, with “10000” for “10,000”, “of” for “having”, “concentrations” for “concentrations of”, “was” for “was then”, “550” for “490”

Data set [11] deals with E. coli biofilms. Put plainly: Biofilm biomass assay (safranin O). It counts as cell-based, Escherichia coli. Conditions: 18 hours treatment. The protocol: as §2
as §3, with “10000” for “10,000”, “of” for “having”, “concentrations” for “concentrations of”, “was” for “was then”, “550” for “490”

Data set [12] relates to K. pneumoniae 8637. As to the kind of experiment: Efficacy (ED50/ED95) in K. pneumoniae 8637-induced pneumonia. It counts as in vivo. Conditions: immunosuppressed mice, intraperitoneally once daily for 3 days, survival over 5 days, BLISS method.
Method: ICR mice (female, 7 weeks old, 24-26 mg) were used for the in vivo studies. Immunosuppression was induced by intraperitoneal injection of 200 mg/Kg cyclophosphamide (Hengrui Corp, Jiangsu Province, P. R. China) 4 days prior to infection. Mice were anesthetized by intra-peritoneal injection of 1% pentobarbital (40 mg/kg, Sigma).
The immunosuppression of mice was induced as described above. Overnight cultures of K. pneumoniae 8637 were harvested and suspended in PBS. Before instillation with K. pneumoniae 8637, the mice were anesthetized using an intraperitoneal injection with 1% pentobarbital (40 mg/kg). Each of the immunosuppressed mice was infected intranasally with 0.03 mL of the bacterial suspension at designated doses (i.e. 1×10^9, 1.5×10^9, 2.3×10^9, 3.5×10^9, 5.3×10^9, 8.0×10^9 CFU/ml, four mice per group). The minimum lethal dose was defined as the lowest dose, which was sufficient to cause 100% mortality. It was determined from the survival rate of mice at 5 days post-infection by the BLISS method.
The number of surviving mice in each group was recorded for 5 days to assess ED50 by the BLISS method.
In data set [13] the test system is K. pneumoniae 8637. Put plainly: Survival of K. pneumoniae 8637-infected mice. It is filed as in vivo. The conditions noted are these: 2.0 mg/kg intraperitoneally once daily for 3 days, five days, n=10. The protocol: ICR mice (female, 7 weeks old, […]) were used for the in vivo studies. Immunosuppression was induced by intraperitoneal injection of 200 mg/Kg cyclophosphamide (Hengrui Corp, Jiangsu Province, P. R. China) 4 days prior to infection. Mice were anesthetized by intra-peritoneal injection of 1% pentobarbital (40 mg/kg, Sigma).
To investigate the in vivo antibacterial efficacy of P-1a-1 (6037B), a pneumonia mouse model was established. The immunosuppression of mice was induced as described above. Overnight cultures of K. pneumoniae 8637 were harvested and suspended in PBS. Before instillation with K. pneumoniae 8637, the mice were anesthetized using an intraperitoneal injection with 1% pentobarbital (40 mg/kg). […] It was determined from the survival rate of mice at 5 days post-infection by the BLISS method.
To further determine the in vivo therapeutic efficacy of P-1a-1 (6037B), survival of the K. pneumoniae 8637-infected mice was monitored with and without treatment. […] After being anesthetized, each of the immunosuppressed mice was inoculated intranasally with 0.03 mL of bacterial suspension at the minimum lethal dose determined above. […] The mice were monitored for a period of five days, and the number of surviving mice in each group was recorded. […]

Usually ED50 stands for the dose at which the effect has come halfway, by size or by number of responders. Read a low ED50 as an effect at a small dose.

For `CCCCCCCCCC[N+](C)(C)Cc1ccc(C(=O)NCCCCCCNC(=O)c2ccc(C[N+](C)(C)CCCCCCCCCC)cc2)cc1.[Cl-].[Cl-]` [S-3g], in [1], the “MIC SA” value was 1 ppm. Further, the “MIC EC” value in data set [2] is given as 1 ppm. The “MIC PA” value in [3] was found to be 8 ppm. Further, the “MIC CA” value in data set [4] is reported as 2 ppm. The “Hemolysis, HC50” value in data set [5] is on record as 125-250 ppm. For the same molecule, in data set [6], the “reduction in the colony forming units (CFU)” value is at least 99.9%. Further, the “killing of all four strains of microbes” value in data set [7] (16 and 32×MIC, 2 minutes) is “completely killed”. The “concentration needed to completely eradicate the microbes” value in data set [7] (30 seconds) is reported as 64 ×MIC. Further, the biofilm cell viability result in data set [8] and in data set [9] was “reduced in a dose dependent manner” in each case. In addition, the biomass of biofilm result in data set [10] and in [11] was “reduced in a dose dependent manner” in each case.
Turning to `CCCCCCCCCC[N+](C)(C)Cc1ccc(C(=O)OCCCCCCCCCCCCOC(=O)c2ccc(C[N+](C)(C)CCCCCCCCCC)cc2)cc1.[Cl-].[Cl-]` [S-10g], the “MIC SA” value in data set [1] is on record as 16 ppm. The “MIC EC” value in data set [2] turned out to be 500 ppm. Also, the “MIC PA” value in [3] came to 500 ppm. For the same molecule, in data set [4], the “MIC CA” value was 16 ppm. In [5], the “Hemolysis, HC50” value was 63-125 ppm.
For `CCCCCCCCCC[N+](C)(C)Cc1ccc(C(=O)OCc2ccc(COC(=O)c3ccc(C[N+](C)(C)CCCCCCCCCC)cc3)cc2)cc1.[Cl-].[Cl-]` [S-12g], in data set [1], the “MIC SA” value is 1 ppm. Besides, the “MIC EC” value in data set [2] is on record as 2 ppm. Moreover, in data set [3], the “MIC PA” value is given as 8 ppm. Besides, the “MIC CA” value in data set [4] turned out to be 2 ppm. In data set [5], the “Hemolysis, HC50” value is listed as 125-250 ppm.
With `CCCCCCCCCC[N+](C)(C)Cc1ccc(C(=O)NCCCCCCOC(=O)c2ccc(C[N+](C)(C)CCCCCCCCCC)cc2)cc1.[Cl-].[Cl-]` [S-13g], the “MIC SA” value in data set [1] was 1 ppm. The “MIC EC” value in data set [2] is 1 ppm. In [3], the “MIC PA” value is listed as 4 ppm. Moreover, the “MIC CA” value in data set [4] stood at 1 ppm. Further, in [5], the “Hemolysis, HC50” value is given as 63-125 ppm.
On to `C[C@@H](O)[C@H]1C(=O)N2C(C(=O)O)=C(SCCN=CN)C[C@H]12` [imipenem], for which, in data set [12] (Klebsiella pneumoniae, 8637, ip), the 50% effect level (ED50) was put at a dose of 2.75 mg/kg. The molecule also showed an ED95 in data set [12] of 20.0 mg/kg. The same molecule displayed a survival in data set [13] of 60%.

The values above are taken from patent publication US11198761B2, “Biodegradable polyionenes” (AGENCY FOR SCIENCE, TECHNOLOGY AND RESEARCH, priority 2017, dated 2021).
